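Step 1: Grow cells in 96-well plates. Step 2: Expose to compound for 48 hours at 5 concentrations. Step 3: Interpolate endpoints linearly; if unreached, use highest concentration. Abbreviation: GI50, concentration required for 50% inhibition of growth.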 Calls of active or inactive are those of the source. Cut-off read from the data, not from the text of the source: active = GI50 up to about 1.1 µM and inactive = higher.
Tests used:
Test in all cases: DTP human tumour cell line panel, 48 h
[1] = tested on: A549
[2] = tested on: XF498
[3] = tested on: KM-20L2
[4] = tested on: DMS-114
[5] = tested on: HCT-15
[6] = tested on: HL-60
[7] = tested on: SF-295
[8] = tested on: CCRF-CEM
[9] = tested on: SK-MEL-5
[10] = tested on: RPMI-8226
[11] = tested on: 786-0
[12] = tested on: SN12C
[13] = tested on: TK-10
[14] = tested on: M14
[15] = tested on: COLO 205
[16] = tested on: NCI-H460
[17] = tested on: UACC-62
[18] = tested on: OVCAR-8
[19] = tested on: MOLT-4
[20] = tested on: ACHN
[21] = tested on: SK-MEL-2
[22] = tested on: SNB-19
[23] = tested on: HOP-62
[24] = tested on: K562
[25] = tested on: DLD-1
[26] = tested on: SF-268
[27] = tested on: SW-620
[28] = tested on: HCC 2998
[29] = tested on: HCT-116
[30] = tested on: IGROV-1
[31] = tested on: LOX IMVI
[32] = tested on: HT-29
[33] = tested on: NCI-H23
[34] = tested on: OVCAR-3
[35] = tested on: SK-MEL-28
[36] = tested on: SF-539
[37] = tested on: Malme-3M
[38] = tested on: A498
[39] = tested on: U-251
[40] = tested on: UO-31
[41] = tested on: UACC-257
[42] = tested on: LXFL 529
[43] = tested on: NCI-H226
[44] = tested on: DMS-273
[45] = tested on: RXF 393
[46] = tested on: SNB-75
[47] = tested on: SR
[48] = tested on: RXF 631
[49] = tested on: OVCAR-4
[50] = tested on: EKVX
[51] = tested on: CAKI-1
[52] = tested on: OVCAR-5
[53] = tested on: NCI-H522
[54] = tested on: KM12
[55] = tested on: HOP-92
[56] = tested on: SK-OV-3
[57] = tested on: M19-MEL
[58] = tested on: SNB-78

Question: With `Cc1c(NC(=O)C(C)(C)Br)c(=O)oc2c(C)c3occc(=O)c3cc12` as the molecule, how does the GI50 [1] read?
Answer: The GI50 was 68.5 µM (inactive).

Question: What about the GI50 [2] of the same molecule?
Answer: Its GI50 is 27.3 µM (inactive).

Question: What about the GI50 [3] of the same molecule?
Answer: The GI50 was 41.4 µM (inactive).

Question: What about the GI50 [4] of the same molecule?
Answer: The GI50 was 44.1 µM (inactive).

Question: What about the GI50 [5] of the same molecule?
Answer: The GI50 was 96.6 µM.

Question: What about the GI50 [6] of the same molecule?
Answer: The GI50 was > 100 µM (inactive).

Question: And the GI50 [7]?
Answer: Its GI50 is 22.9 µM (inactive).

Question: What about the GI50 [8] of the same molecule?
Answer: Its GI50 is 28.2 µM (inactive).

Question: What about the GI50 [9] of the same molecule?
Answer: The GI50 was 29.7 µM (inactive).

Question: What about the GI50 [10] of the same molecule?
Answer: The GI50 was 45.3 µM (inactive).

Question: And the GI50 [11]?
Answer: Its GI50 is 53.7 µM (inactive).

Question: What about the GI50 [12] of the same molecule?
Answer: The GI50 was 52.4 µM (inactive).

Question: What about the GI50 [13] of the same molecule?
Answer: Its GI50 is > 100 µM (inactive).

Question: What about the GI50 [14] of the same molecule?
Answer: Its GI50 is 48.9 µM (inactive).

Question: And the GI50 [15]?
Answer: Its GI50 is > 100 µM (inactive).

Question: And the GI50 [16]?
Answer: Its GI50 is 58.9 µM (inactive).

Question: What about the GI50 [17] of the same molecule?
Answer: Its GI50 is 67.5 µM (inactive).

Question: And the GI50 [18]?
Answer: The GI50 was 55 µM (inactive).

Question: What about the GI50 [19] of the same molecule?
Answer: Its GI50 is 37.1 µM (inactive).

Question: What about the GI50 [20] of the same molecule?
Answer: The GI50 was 45.8 µM (inactive).

Question: And the GI50 [21]?
Answer: The GI50 was 59.6 µM (inactive).

Question: What about the GI50 [22] of the same molecule?
Answer: Its GI50 is 87.9 µM (inactive).

Question: What about the GI50 [23] of the same molecule?
Answer: Its GI50 is 29.6 µM (inactive).

Question: What about the GI50 [24] of the same molecule?
Answer: Its GI50 is 64.3 µM (inactive).

Question: What about the GI50 [25] of the same molecule?
Answer: The GI50 was 59 µM (inactive).

Question: What about the GI50 [26] of the same molecule?
Answer: Its GI50 is 64.9 µM (inactive).

Question: And the GI50 [27]?
Answer: Its GI50 is > 100 µM (inactive).

Question: What about the GI50 [28] of the same molecule?
Answer: The GI50 was > 100 µM (inactive).

Question: And the GI50 [29]?
Answer: The GI50 was 59.4 µM (inactive).

Question: And the GI50 [30]?
Answer: Its GI50 is 57 µM (inactive).

Question: And the GI50 [31]?
Answer: The GI50 was 76.9 µM (inactive).

Question: And the GI50 [32]?
Answer: The GI50 was 90.2 µM (inactive).

Question: And the GI50 [33]?
Answer: Its GI50 is 81.5 µM (inactive).

Question: And the GI50 [34]?
Answer: Its GI50 is > 100 µM (inactive).

Question: And the GI50 [35]?
Answer: Its GI50 is > 100 µM (inactive).

Question: What about the GI50 [36] of the same molecule?
Answer: The GI50 was 43.7 µM (inactive).

Question: What about the GI50 [37] of the same molecule?
Answer: The GI50 was 31.1 µM (inactive).

Question: And the GI50 [38]?
Answer: The GI50 was 18.1 µM (inactive).

Question: And the GI50 [39]?
Answer: The GI50 was 72.9 µM (inactive).

Question: What about the GI50 [40] of the same molecule?
Answer: Its GI50 is 21.3 µM (inactive).

Question: And the GI50 [41]?
Answer: The GI50 was > 100 µM (inactive).

Question: What about the GI50 [42] of the same molecule?
Answer: Its GI50 is 42.9 µM (inactive).

Question: What about the GI50 [43] of the same molecule?
Answer: Its GI50 is 23.3 µM (inactive).

Question: And the GI50 [44]?
Answer: Its GI50 is 77.3 µM (inactive).

Question: And the GI50 [45]?
Answer: The GI50 was 55.3 µM (inactive).

Question: What about the GI50 [46] of the same molecule?
Answer: The GI50 was 35.7 µM (inactive).

Question: And the GI50 [47]?
Answer: The GI50 was 43 µM (inactive).

Question: What about the GI50 [48] of the same molecule?
Answer: The GI50 was 48.1 µM (inactive).

Question: And the GI50 [49]?
Answer: Its GI50 is 49.8 µM (inactive).

Question: What about the GI50 [50] of the same molecule?
Answer: The GI50 was > 100 µM (inactive).

Question: With `CCOC(=O)C(=O)Nc1nc2c(s1)C(=O)c1ccccc1C2=O` as the molecule, how does the GI50 [1] read?
Answer: Its GI50 is 17.8 µM (inactive).

Question: What about the GI50 [2] of the same molecule?
Answer: Its GI50 is 13.9 µM (inactive).

Question: What about the GI50 [3] of the same molecule?
Answer: Its GI50 is 21.2 µM (inactive).

Question: And the GI50 [4]?
Answer: Its GI50 is 3.6 µM (inactive).

Question: What about the GI50 [5] of the same molecule?
Answer: The GI50 was 15.6 µM.

Question: What about the GI50 [8] of the same molecule?
Answer: Its GI50 is 5.05 µM (inactive).

Question: What about the GI50 [51] of the same molecule?
Answer: Its GI50 is 18.5 µM (inactive).

Question: What about the GI50 [9] of the same molecule?
Answer: Its GI50 is 14.3 µM (inactive).

Question: What about the GI50 [52] of the same molecule?
Answer: The GI50 was 27.7 µM (inactive).

Question: What about the GI50 [10] of the same molecule?
Answer: Its GI50 is 4.74 µM (inactive).

Question: And the GI50 [53]?
Answer: Its GI50 is 14.9 µM (inactive).

Question: And the GI50 [11]?
Answer: The GI50 was 17.4 µM (inactive).

Question: And the GI50 [12]?
Answer: The GI50 was 16.5 µM (inactive).

Question: And the GI50 [14]?
Answer: The GI50 was 15.7 µM (inactive).

Question: And the GI50 [15]?
Answer: The GI50 was 22.5 µM (inactive).

Question: And the GI50 [16]?
Answer: Its GI50 is 19.2 µM (inactive).

Question: What about the GI50 [17] of the same molecule?
Answer: The GI50 was 17.5 µM (inactive).

Question: And the GI50 [18]?
Answer: Its GI50 is 10.6 µM (inactive).

Question: What about the GI50 [19] of the same molecule?
Answer: Its GI50 is 2.32 µM (inactive).

Question: And the GI50 [20]?
Answer: The GI50 was 14.9 µM (inactive).

Question: What about the GI50 [21] of the same molecule?
Answer: The GI50 was 17.2 µM (inactive).

Question: And the GI50 [22]?
Answer: Its GI50 is 17.9 µM (inactive).

Question: What about the GI50 [23] of the same molecule?
Answer: The GI50 was 18.9 µM (inactive).

Question: And the GI50 [24]?
Answer: The GI50 was 6.03 µM (inactive).

Question: And the GI50 [25]?
Answer: Its GI50 is 15.3 µM (inactive).

Question: And the GI50 [26]?
Answer: Its GI50 is 14.1 µM (inactive).

Question: And the GI50 [27]?
Answer: The GI50 was 13.4 µM (inactive).

Question: And the GI50 [54]?
Answer: The GI50 was 16 µM (inactive).

Question: And the GI50 [28]?
Answer: Its GI50 is 17.7 µM (inactive).

Question: What about the GI50 [29] of the same molecule?
Answer: The GI50 was 13.3 µM (inactive).

Question: What about the GI50 [30] of the same molecule?
Answer: Its GI50 is 19.1 µM (inactive).

Question: What about the GI50 [32] of the same molecule?
Answer: Its GI50 is 14.4 µM (inactive).

Question: And the GI50 [33]?
Answer: The GI50 was 13.5 µM (inactive).

Question: What about the GI50 [34] of the same molecule?
Answer: Its GI50 is 5.62 µM (inactive).

Question: What about the GI50 [35] of the same molecule?
Answer: The GI50 was 14.3 µM (inactive).

Question: And the GI50 [36]?
Answer: The GI50 was 17.7 µM (inactive).

Question: And the GI50 [37]?
Answer: Its GI50 is 12.3 µM (inactive).

Question: And the GI50 [38]?
Answer: The GI50 was 16.1 µM (inactive).

Question: And the GI50 [39]?
Answer: The GI50 was 16.6 µM (inactive).

Question: And the GI50 [40]?
Answer: The GI50 was 14.8 µM (inactive).

Question: And the GI50 [41]?
Answer: Its GI50 is 16.1 µM (inactive).

Question: What about the GI50 [42] of the same molecule?
Answer: Its GI50 is 13.4 µM (inactive).

Question: What about the GI50 [55] of the same molecule?
Answer: The GI50 was 12.2 µM (inactive).

Question: And the GI50 [43]?
Answer: The GI50 was 18.2 µM (inactive).

Question: What about the GI50 [56] of the same molecule?
Answer: The GI50 was > 10 µM (inactive).

Question: What about the GI50 [57] of the same molecule?
Answer: Its GI50 is 2.49 µM (inactive).

Question: What about the GI50 [58] of the same molecule?
Answer: The GI50 was 11.6 µM (inactive).

Question: What about the GI50 [44] of the same molecule?
Answer: The GI50 was 19.6 µM (inactive).

Question: What about the GI50 [46] of the same molecule?
Answer: Its GI50 is 16.2 µM (inactive).

Question: And the GI50 [47]?
Answer: Its GI50 is 3.43 µM (inactive).

Question: And the GI50 [48]?
Answer: Its GI50 is 12.3 µM (inactive).

Question: What about the GI50 [49] of the same molecule?
Answer: Its GI50 is 17.1 µM (inactive).

Question: What about the GI50 [50] of the same molecule?
Answer: The GI50 was 16.1 µM (inactive).
